Reference: ChEMBL document CHEMBL1201862, “PubChem BioAssay data set” (2004)
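Results reflect a 48-hour exposure of cells in 96-well plates to compound at five concentrations. Abbreviation: GI50, concentration required for 50% inhibition of growth.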 Activity calls are given as the source filed them. No stated cut-off is given here; in the data, active = GI50 up to about 1.1 µM and inactive = higher.

Key:
Assay in all cases: NCI tumour cell line growth inhibition, 48 h
[1] = system: A498
[2] = system: SK-MEL-28
[3] = system: RXF 631
[4] = system: DLD-1
[5] = system: M19-MEL
[6] = system: DMS-114
[7] = system: KM-20L2
[8] = system: BT-549

Measured: GI50

N#CCCC1C(C#N)C2(Cl)CC1(Cl)C(Cl)=C2Cl (centres undefined)
inactive: [1] > 10 µM | [2] > 10 µM

CC1(C)CCc2cc3c(-c4ccccc4)cc(=O)oc3cc2O1
inactive: [3] > 100 µM | [4] > 100 µM | [1] > 100 µM | [5] > 100 µM | [6] > 100 µM | [7] > 100 µM | [2] > 100 µM

COC(c1ccc(C(C)(C)C)cc1)(c1ccc(C(C)(C)C)cc1)c1cc(C(O)(c2cc(C(OC)(c3ccc(C(C)(C)C)cc3)c3ccc(C(C)(C)C)cc3)c(C)cc2C)c2cc(C(OC)(c3ccc(C(C)(C)C)cc3)c3ccc(C(C)(C)C)cc3)c(C)cc2C)c(C)cc1C
inactive: [8] > 100 µM | [1] > 100 µM | [2] > 100 µM

CCOC(=O)c1csc(NC(=O)CN(C)C)n1
inactive: [1] > 100 µM | [2] > 100 µM

O=c1c2ccccc2[nH]c2cc(O)cc(O)c12
inactive: [5] 39.1 µM | [2] > 100 µM

CCOc1ccc(C(C)c2cc3c(cc2OC)OCO3)cc1 (centres undefined)
active: [4] 0.377 µM | [6] 0.214 µM | [7] 0.199 µM
